Columns and labels:
[1] = tested on: respiratory syncytial virus (RSV); design: method as in PMID 24882250; conditions: read-out: anti-RSV IC50; cited from earlier work
[2] = tested on: MKN-45 (human gastric cancer cell); assay: CCK-8 anti-proliferation assay, MKN-45; type: cell-based; conditions: at 20 µM, 48 h, mean ± SEM, read-out: Inhibition Rate (%)
Description: (§1) One concentration was set for each sample during preliminary screening and three multiple holes were set for each concentration. Eight concentration gradients were set for each sample for IC50 determination and three multiple holes were set for each concentration. […] The absorbance was measured at 450 nm with an enzyme labeling instrument and the original data and results were recorded. […] Doxorubicin was used as a positive control. All the cancer cell lines were obtained from Qingdao AC biotechnology Co., LTD, Qingdao, China.

[3] = tested on: HOS (human osteosarcoma cell); assay: CCK-8 anti-proliferation assay, HOS; type: cell-based; conditions: at 20 µM, 48 h, mean ± SEM, read-out: Inhibition Rate (%)
Description: as §1

[4] = tested on: GBC-SD (human gallbladder carcinoma cell); assay: CCK-8 anti-proliferation assay, GBC-SD; type: cell-based; conditions: at 20 µM, 48 h, mean ± SEM, read-out: Inhibition Rate (%)
Description: as §1

[5] = tested on: MCF7 (human breast cancer cell); assay: CCK-8 anti-proliferation assay, MCF7; type: cell-based; conditions: at 20 µM, 48 h, mean ± SEM, read-out: Inhibition Rate (%)
Description: as §1

[6] = tested on: DU145 (human prostate carcinoma cell); assay: CCK-8 anti-proliferation assay, DU145; type: cell-based; conditions: DU-145, at 20 µM, 48 h, mean ± SEM, read-out: Inhibition Rate (%)
Description: as §1

[7] = tested on: 786-O (human renal cancer cell); assay: CCK-8 anti-proliferation assay, 786-O; type: cell-based; conditions: 786-0, at 20 µM, 48 h, mean ± SEM, read-out: Inhibition Rate (%)
Description: as §1

[8] = tested on: HCT 116 (human colorectal cancer cell); assay: CCK-8 anti-proliferation assay, HCT 116; type: cell-based; conditions: at 20 µM, 48 h, mean ± SEM, read-out: Inhibition Rate (%)
Description: as §1

[9] = tested on: L-02 (human hepatocyte cell); assay: CCK-8 anti-proliferation assay, L-02; type: cell-based; conditions: L-02 normal liver cells, at 20 µM, 48 h, mean ± SEM, read-out: Inhibition Rate (%)
Description: as §1

[10] = tested on: A-375 (human melanoma cell); assay: CCK-8 anti-proliferation assay, A-375; type: cell-based; conditions: at 20 µM, 48 h, mean ± SEM, read-out: Inhibition Rate (%)
Description: as §1

[11] = tested on: 5637 (HTB-9) (human bladder cancer cell); assay: CCK-8 anti-proliferation assay, 5637 (HTB-9); type: cell-based; conditions: for inhibition at 20 µM: 5637 (HTB-9), 48 h, mean ± SEM, read-out: Inhibition Rate (%); for IC50: CCK-8, 48 h, read-out: IC50 against 5637 (HTB-9) cells
Description: as §1

[12] = tested on: PATU8988T (human pancreatic cancer cell); assay: CCK-8 anti-proliferation assay, PATU8988T; type: cell-based; conditions: PaTu 8988t, at 20 µM, 48 h, mean ± SEM, read-out: Inhibition Rate (%)
Description: as §1

[13] = tested on: SF126 (human glioblastoma cell); assay: CCK-8 anti-proliferation assay, SF126; type: cell-based; conditions: SF-126, at 20 µM, 48 h, mean ± SEM, read-out: Inhibition Rate (%)
Description: as §1

[14] = tested on: HeLa (human cervical cancer cell); assay: CCK-8 anti-proliferation assay, HeLa; type: cell-based; conditions: at 20 µM, 48 h, mean ± SEM, read-out: Inhibition Rate (%)
Description: as §1

[15] = tested on: K-562 (human myeloid leukemia cell); assay: CCK-8 anti-proliferation assay, K-562; type: cell-based; conditions: 48 h, mean ± SEM; for inhibition at 20 µM: Homo sapiens, K562, at 20 µM, read-out: Inhibition Rate (%); for Inhibition Rate (%): at 20 µM
Description: as §1

[16] = tested on: 293T (human embryonic kidney cell); assay: CCK-8 anti-proliferation assay, 293T; type: cell-based; conditions: HEK-293T, at 20 µM, 48 h, mean ± SEM, read-out: Inhibition Rate (%)
Description: as §1

[17] = tested on: A549 (human lung adenocarcinoma cell); assay: CCK-8 anti-proliferation assay, A549; type: cell-based; conditions: A549, 48 h, at 20 µM, mean ± SEM, read-out: Inhibition Rate (%)
Description: as §1

[18] = tested on: respiratory syncytial virus (RSV); assay: Anti-RSV activity assay (RT-qPCR); type: cell-based; conditions: human respiratory syncytial virus, HEp-2 cells, mean ± SEM, read-out: Inhibition rate (%) of RSV replication
Source text: Remdesivir was selected and evaluated as a positive control.

A-673 (Ewing sarcoma) = assay: CCK-8 anti-proliferation assay, A-673; type: cell-based; conditions: Homo sapiens, A673, at 20 µM, 48 h, mean ± SEM, read-out: Inhibition Rate (%)
Description: as §1

[19] = tested on: CAL-62 (human thyroid anaplastic carcinoma cell); assay: CCK-8 anti-proliferation assay, CAL-62; type: cell-based; conditions: at 20 µM, 48 h, mean ± SEM, read-out: Inhibition Rate (%)
Description: as §1

[20] = tested on: HepG2 (human liver carcinoma cell); assay: CCK-8 anti-proliferation assay, HepG2; type: cell-based; conditions: for IC50: CCK-8, 48 h, read-out: IC50 against HepG2 cells; for inhibition at 20 µM: 48 h, mean ± SEM, read-out: Inhibition Rate (%)
Description: as §1

[21] = tested on: TE-1 (human esophageal cancer cell); assay: CCK-8 anti-proliferation assay, TE-1; type: cell-based; conditions: at 20 µM, 48 h, mean ± SEM, read-out: Inhibition Rate (%)
Description: as §1

Compound	IC50 [1] [µM]	inhibition at 20 µM [2] [%]	inhibition at 20 µM [3] [%]	inhibition at 20 µM [4] [%]	inhibition at 20 µM [5] [%]	inhibition at 20 µM [6] [%]	inhibition at 20 µM [7] [%]	inhibition at 20 µM [8] [%]	inhibition at 20 µM [9] [%]	inhibition at 20 µM [10] [%]	inhibition at 20 µM [11] [%]	IC50 [11] [µM]	inhibition at 20 µM [12] [%]	inhibition at 20 µM [13] [%]	inhibition at 20 µM [14] [%]	inhibition at 20 µM [15] [%]	Inhibition Rate (%) [15]	inhibition at 20 µM [16] [%]	inhibition at 20 µM [17] [%]	inhibition at 10 µM [18] [%]	further results
CC(=O)OCC(C)/C=C/[C@@H](C)[C@H]1CC[C@H]2[C@@H]3CC(=O)[C@@]4(O)C[C@@H](O)CC[C@]4(C)[C@H]3CC[C@]12C (some centres unmarked) [compound 4]	3.23	–	–	–	–	–	–	–	–	–	–	–	–	–	–	–	–	–	–	–	–
CC(=O)OC[C@@H](C)[C@H](C)/C=C/[C@@H](C)[C@H]1CC[C@H]2[C@@H]3CC(=O)[C@@]4(O)C[C@@H](O)CC[C@]4(C)[C@H]3CC[C@]12C [compound 2]	0.19	–	–	–	–	–	–	–	–	–	–	–	–	–	–	–	–	–	–	–	–
C[C@@H](CO)CCC[C@@H](C)[C@H]1CC[C@H]2[C@@H]3CC=C4C[C@@H](O)CC[C@]4(C)[C@H]3CC[C@]12C [compound 11, (3S,8S,9S,10R,13R,14S,17R)-17-((2R,6R)-7-Hydroxy-6-Methylheptan-2-yl)-10,13-Dimethyl-2,3,4,7,8,9,10,11,12,13,14,15,16,17-Tetradecahydro-1H-Cyclopenta[a]Phenanthren-3-ol]	–	53.8 ± 1.6	9.3 ± 4.3	10.4 ± 3.3	14.1 ± 0.5	18.4 ± 3.7	65.9 ± 2.4	19.8 ± 1.4	2.8 ± 2.1	60.8 ± 1.4	80.5 ± 2.5	3	63.3 ± 4.2	11.7 ± 2.9	14.9 ± 2.2	13.1 ± 1.8	did not exhibit any anti-proliferative activities	-18.2 ± 1.3	≤ 50	22.2 ± 3.9	inhibition at 20 µM (A-673 (Ewing sarcoma)): 26.5 ± 2.1%; inhibition at 20 µM [19]: 12.5 ± 3.9%; IC50 [20]: 5.6 µM; inhibition at 20 µM [20]: 64.2 ± 2.5%; inhibition at 20 µM [21]: 27.7 ± 0.6%
C[C@@H](CO)CCC[C@@H](C)[C@H]1[C@@H](O)C[C@H]2[C@@H]3CC=C4C[C@@H](O)CC[C@]4(C)[C@H]3CC[C@]12C [compound 8, (3S,8S,9S,10R,13S,14S,16S,17R)-17-((2R,6R)-7-Hydroxy-6-Methylheptan-2-yl)-10,13-Dimethyl-2,3,4,7,8,9,10,11,12,13,14,15,16,17-Tetradecahydro-1H-Cyclopenta[a]Phenanthrene-3,16-diol]	–	54.4 ± 1.9	2.7 ± 4	26.8 ± 1.3	31.2 ± 1.4	26 ± 1.7	69 ± 1.8	61.7 ± 2.1	8.1 ± 1.3	72.3 ± 0.6	75.1 ± 0.8	5.8	62.7 ± 2	30.7 ± 2.4	49.7 ± 3.6	7.2 ± 2.2	did not exhibit any anti-proliferative activities	42.4 ± 2.1	53 ± 2.7	24.9 ± 2.6	inhibition at 20 µM (A-673 (Ewing sarcoma)): 51.9 ± 2.8%; inhibition at 20 µM [19]: 28 ± 4%; IC50 [20]: 12 µM; inhibition at 20 µM [20]: 76.8 ± 1.3%; inhibition at 20 µM [21]: 34 ± 3.8%
